Results as given in paper PMC6585474, “In vitro and in vivo Human Metabolism of (S)-[^18F]Fluspidine – A Radioligand for Imaging σ1 Receptors With Positron Emission Tomography (PET)” (Frontiers in Pharmacology, 2019).
Read-outs that look alike come from different tables or passages of the source.

Assays:
[1] = RLM, NADPH, after 30 min; ref Wiese et al., 2016; cited from earlier work
[2] = design: method as in Wiese et al., 2016; conditions: mouse brain, 60 min post injection; ref Wiese et al., 2016; cited from earlier work
[3] = design: method as in Wiese et al., 2016; conditions: mouse plasma, 30 min post injection; ref Wiese et al., 2016; cited from earlier work
[4] = Incubation of (S)-1 with HLM (NADPH, UDPGA) and detection of metabolites by LC-MS/MS; type: in vitro ADME, human; conditions: 37°C, 120 min, LC-MS/MS (MRM)
Procedure: In the following, the final concentrations are provided in brackets. For incubations of (S)-[^18F]1 together with (S)-1 under conditions for oxidation and glucuronidation, a solution of (S)-1 of 0.1 mg/mL (2 μM) in acetonitrile was put into test tubes and the solvent was evaporated using the DB-3D TECHNE Sample Concentrator (Biostep) at room temperature under a stream of nitrogen. HLM (1 mg/mL) and alamethicin (50 μg/mL, from methanolic solution) were mixed ([Fisher et al., 2000]), kept on ice for 15 min and added to the test tubes. PBS, ∼5 MBq (S)-[^18F]1 in 20 μL PBS, and MgCl2 (2 mM) were added, mixed vigorously and the mixture was pre-incubated at 37°C for 3 min. After addition of analogously pre-incubated NADPH (2 mM) and UDPGA (5 mM), the incubations were continued by gentle shaking at 37°C for 120 min using the BioShake iQ (QUANTIFOIL Instruments). After termination by adding 1.0 mL of cold acetonitrile (-20°C) and vigorous mixing for 30 s, the mixtures were stored at 4°C for 5 min. […]
For selective detection of metabolites, MRM transitions, which covered products of, e.g., debenzylation, defluorination, single, and multiple oxygenations as well as single and multiple glucuronidation of (S)-1 or its intermediate metabolites, were monitored. After incubation of (S)-1 with HLM in presence of NADPH a series of metabolites (M1–M10) could be detected (Figure 4 and Table 1).

[5] = Time- and concentration-dependent microsomal transformation of (S)-[^18F]1 (HLM, NADPH, radio-HPLC); type: in vitro ADME, human; conditions: 37°C; for unchanged radioligand: after 30 min incubation; for time at which 50% of unchanged (S)-[^18F]1 could be detected: HLM
Procedure: Respective amounts of a solution of (S)-1 of 0.1 mg/mL [<1 μM (referring to estimated molar activity; no addition of carrier), 2, and 20 μM] in acetonitrile were put into test tubes and the solvent was evaporated using the DB-3D TECHNE Sample Concentrator (Biostep, Jahnsdorf, Germany) at room temperature under a stream of nitrogen. PBS and HLM (1 mg/mL) and ∼5 MBq (S)-[^18F]1 (molar activity: 17 GBq/μmol, at the start of incubations) in 100 μl PBS were added, mixed vigorously, and pre-incubated at 37°C for 3 min. Analogously pre-incubated NADPH (2 mM) was added and mixtures were shaken gently at 37°C using the BioShake iQ (QUANTIFOIL Instruments, Jena, Germany). After 0, 2, 5, 10, 15, 20, 30, 40, 50, and 60 min, samples of 20 μL were taken and added to 80 μL cold acetonitrile (-20°C), followed by vigorous shaking (30 s), cooling on ice (4 min), and centrifugation at 14,000 rpm (10 min). Supernatants (90 μL) were diluted with water (30 μL) and immediately analyzed by radio-HPLC (system II).
System II: Analyses of samples from microsomal incubations to determine time and concentration dependency of microsomal transformation were performed on a JASCO X-LC system (JASCO Labor- und Datentechnik) equipped with a UV/Vis detector UV-2070 (monitoring at 210 nm) and a radioactivity flow detector GABI Star (raytest Isotopenmessgeräte, Straubenhardt, Germany) including NaI detector (2 × 2″ pinhole, 16 mm × 30 mm). […] The isocratic solvent system consisted of water/acetonitrile 40:60 (v/v), containing NH4OAc (20 mM). Unchanged (S)-[^18F]1 eluted at a retention time of 4.1 min, whilst formed radiometabolites eluted at 0.6–2.2 min. The percentages of unchanged (S)-[^18F]1 were calculated from HPLC data as follows: Fraction of (S) - [^18F]1(%) = Peak area(S)-[18F]1/(Peak area(S)-[18F]1 + Peak arearadiometabolites) × 100%
In order to obtain basic information about the metabolic stability in vitro, the time course of the degradation of (S)-[^18F]1 was investigated in presence of different concentrations of (S)-1 [no-carrier-added (n.c.a., <1 μM) and carrier-added: 2 and 20 μM]. For that purpose, incubations were performed in PBS with HLM and NADPH at 37°C. At defined time points (until 60 min) samples were taken and added to cold acetonitrile to terminate the incubations. After centrifugation, the fractions of remaining (S)-[^18F]1 were determined by radio-HPLC.

[6] = rhesus monkey, in vivo; cited from earlier work
[7] = in vivo, cited from earlier work
[8] = human, in vivo
Procedure: After injection of 244.6-290.4 MBq (mean: 265.5 MBq) of (S)-[^18F]1 into 8 healthy controls arterial blood samples (∼16 mL) were withdrawn at 10, 20, and 30 min. […] After 90 or 120 min, urine (∼8 mL) was collected and stored on ice. Plasma was obtained by centrifugation of blood samples at 7,000 rpm (UNIVERSAL 320 R, Hettich, Germany) for 7 min. Protein precipitation and extraction with acetonitrile was conducted as follows. Method A: 10 × 1.6 mL cold acetonitrile (-35°C) were added to 10 × 400 μL plasma, shaken for 3 min, cooled at 4°C for 5 min and centrifuged at 7,000 rpm (Eppendorf Centrifuge 5424) for 5 min. Supernatants were collected and the precipitates were extracted with 1.6 mL acetonitrile each. The combined supernatants were concentrated at 70°C under a flow of nitrogen (Sample Concentrator DB-3D TECHNE) to provide residual volumes of 40–70 μL, which were reconditioned by adding water to obtain samples of 100 μL, which were immediately analyzed by radio-HPLC (system I). Method B: similar to method A, using 2 × 8 mL cold acetonitrile (-35°C) and 2 × 2 mL plasma. After centrifugation, the precipitates were extracted with 2 × 4 mL acetonitrile.
System I: Analyses were performed on a JASCO LC-2000 system (JASCO Labor- und Datentechnik, Gross-Umstadt, Germany) including a UV-2070 UV–VIS detector (monitoring at 210 nm) online with a GABI Star radioactivity flow detector (raytest Isotopenmessgeräte, Straubenhardt, Germany) with a NaI detector (2 × 2″ pinhole, 16 mm × 30 mm). Chromatographic separations were achieved using a Multospher 120 RP 18 AQ-5μ-column, 250 mm × 4.6 mm, 5 μm, including pre-column, 10 mm × 4 mm (CS-Chromatographie Service, Langerwehe, Germany). The solvent system consisted of eluent A: water/acetonitrile, 95:5 (v/v), containing NH4OAc (20 mM) and eluent B: water/acetonitrile, 20:80 (v/v), containing NH4OAc (20 mM). […]
Urine samples, taken after 90 or 120 min post injection were measured by radio-HPLC without further preparation.

[9] = tested on: β-glucuronidase (Helix pomatia type H-3); assay: β-Glucuronidase cleavage of microsomal-formed metabolite M12; type: in vitro ADME; conditions: acetate buffer pH 4.5–5.0, 37°C, 2 h; M5 the only product observed
Procedure: In order to investigate the cleavage of formed glucuronides (see section “β-Glucuronidase Cleavage of Microsomal-Formed Metabolite M12”), microsomal incubation of (S)-1 was performed in quadruplicate with higher amounts of the substrate and the reagents as follows (final concentrations in brackets): (S)-1 (200 μM), HLM (2 mg/mL), NADPH (4 mM), MgCl2 (5 mM), alamethicin (0.1 mg/mL), UDPGA (10 mM). After addition of acetonitrile, resulting mixtures were combined and further processing was proceeded as described above. The obtained sample was separated chromatographically using the HPLC system I (Section “Radio-HPLC”) with UV monitoring at 210 nm. […]
To 10 μL of a solution of metabolite M12 (Section “Incubation of (S)-[^18F]1 and Non-radioactive References for Identification of in vitro Metabolites and Radiometabolites”), 32 μL acetate buffer (NaOAc/AcOH, 100 mM, pH 4.5–5.0), and 8 μL β-glucuronidase from Helix pomatia Type H-3 (aqueous solution, ≥90,000 units/mL, final: ≥14,400 units/mL) were added. […] After centrifugation at 14,000 rpm (Eppendorf Centrifuge 5424) for 15 min, 40 μL of the supernatant was diluted with 60 μL of water and analyzed by LC-MS/MS monitoring the MRM transitions m/z 518.2/342.2 (as for glucuronides of mono-oxygenated metabolites, e.g., M12) and 342.2/91.1 (as for mono-oxygenated metabolites, e.g., M5).

[10] = HLM 1 mg/mL, PBS, n.c.a. (<1 μM)

## FCCC1OC2(CCN(Cc3ccccc3)CC2)c2ccccc21 (racemic) [rac-1, racemic fluspidine]
[1]
  stability (intact compound): ~13%

## [17F]CCC1OC2(CCN(Cc3ccccc3)CC2)c2ccccc21 (racemic) [rac-[^18F]1, racemic [^18F]fluspidine]
[2]
  unchanged radioligand in brain: 98%
[3]
  fraction of unchanged rac-[^18F]1 in plasma: 89 ± 3%

## FCC[C@@H]1OC2(CCN(Cc3ccccc3)CC2)c2ccccc21 [(S)-1, 1′ -benzyl-3-(2-fluoroethyl)-3H-spiro[2-benzofuran-1,4′ -piperidine]]
[4]
  defluorination: not observed
[5]; [10]
  unchanged radioligand: 14%

## [18F]CC[C@@H]1OC2(CCN(Cc3ccccc3)CC2)c2ccccc21 [(S)-[^18F]1, (S)-[^18F]fluspidine]
[5]; [10]
  unchanged radioligand: 14%
[5]; HLM 1 mg/mL, PBS, n.c.a. (<1 μM), after 60 min
  unchanged (S)-[^18F]1: 3%
[5]; 2 μM added (S)-1
  time at which 50% of unchanged (S)-[^18F]1 could be detected: 10 min
[5]; 20 μM added (S)-1
  time at which 50% of unchanged (S)-[^18F]1 could be detected: 17 min
[5]; n.c.a. (<1 μM)
  time at which 50% of unchanged (S)-[^18F]1 could be detected: 10 min
[6]
  fraction of the total activity in plasma: 50%
[7]; 16 min
  radioligand remained unchanged in plasma: 48%
[7]; 0.5 h
  radioligand remained unchanged in plasma: 37%
[8]
  Fraction of (S)-[^18F]1 of the total activity in urine: 0.0–7.9%
[8]; 90 min
  Fraction of (S)-[^18F]1 in urine: 2.6%
[8]; 120 min
  Fraction of (S)-[^18F]1 in urine: 2.5%

## O=C(O)[C@H]1OC(OC(CF)[C@@H]2OC3(CCN(Cc4ccccc4)CC3)c3ccccc32)[C@H](O)[C@@H](O)[C@@H]1O (some centres unmarked) [M12]
[9]
  cleavage by β-glucuronidase: cleaved completely
